Results on three molecules are retold here after patent US20090186907A1, “Pyrazinones As Cellular Proliferation Inhibitors” (E.I. DuPont De Nemours and Company, priority 2006, published 2009).

Data set [1] deals with rhabdomyosarcoma (RD) cells. Briefly: Assay for inhibition of cell proliferation (MTT), rhabdomyosarcoma cells. The class given is cell-based, human. As to conditions: for IC50: Homo sapiens, rhabdomyosarcoma (RD) cells, MTT, 96 h incubation; for RD Ratio (paclitaxel/compound): ratio of paclitaxel IC50 to compound IC50, RD cells. On the procedure: (§1) Human rabdomyosarcoma (RD) and mouse neuroblastoma (N1E115) cell lines were obtained from the American Type Culture Collection (ATCC, Rockville, Md.). The RD cells were grown in Dulbecco's modified eagle medium (DMEM) supplemented with 4 mM glutamine, containing 10% fetal bovine serum (ATCC #30-2020) and supplemented with 1% penicillin and 1% streptomycin. When confluent, the cells were maintained by passage (about once per week) until needed. The N1E115 line was also cultured in DMEM with 4 mM glutamine containing 10% newborn calf serum (Gibco, Grand Island, N.Y.) and likewise maintained.
(§2) The proliferation of rhabdomyosarcoma cells was determined using a cell proliferation assay kit based on the formation of insoluble formazan crystals from 3-(4,5-dimethylthiazol-2-yl)-2,5-diphenyltetrazolium bromide (MTT). The rhabdomyosarcoma cells were cultured to a density of 10^5 cells per mL. The cell culture (100 μL) was dispensed into wells of a 96-well plate to 10^4 cells per well. The plate was incubated at 37° C. for 3 h until the cells firmly attached to the well surfaces.
(§3) A second 96-well round bottom plate was made up containing the test compounds, serially diluted to cover the concentration range of interest using the DMEM medium plus antibiotics. The final concentration of DMSO in which the compounds were initially dissolved was maintained at a constant 0.5% in each well and the volume of the compounds in the plate was 220 μL. Following the 3 h incubation the medium was removed from the plate containing the cells and replaced with 200 μL of the solutions containing the compounds. The cells were incubated for a further 96 h before the assessment of growth inhibition using MTT.
(§4) The cells were left bathing in 100 μL of the saline solution to which was added 100 μL of MTT in saline (12 mM). Incubation was continued for 4 h at 37° C. to produce the blue formazan color which was quantified by optical density measurements at 570 nm. Background correction of all test wells was performed by subtraction of the yellow MTT solution color measured at 570 nm in cell-free wells. The data were normalized to solvent only control wells.

The test system of data set [2] is neuroblastoma (N1E115) cells. The data set can be described thus: Assay for inhibition of cell proliferation (MTT), neuroblastoma cells. The class given is cell-based, mouse. The conditions noted are these: for IC50: Mus musculus, N1E-115, neuroblastoma (N1E115) cells, MTT; for N1E115 Ratio (paclitaxel/compound): ratio of paclitaxel IC50 to compound IC50, N1E115 cells. On the procedure: as §1, §2, §3, §4

Each structure is given as a SMILES string.

In general, IC50 refers to the midpoint of a concentration-inhibition curve. Low readings indicate inhibition by little substance, high ones a need for much substance. By melting point is commonly meant the temperature of the solid-liquid transition. As for `CC(C)Cn1c(-c2ccc(F)cc2Cl)c(Cl)nc(-n2cccn2)c1=O` [Compound 53, 5-Chloro-6-(2-chloro-4-fluorophenyl)-1-(2-methylpropyl)-3-(1H-pyrazol-1-yl)-2(1H)-pyrazinone], the melting point fell in the range of 137 to 139 °C. In addition, in data set [1], the IC50 is 230 nM and the “RD Ratio (paclitaxel/compound)” value came to 0.07. In data set [2], the half-maximal inhibitory concentration (IC50) was determined as 700 nM and the “N1E115 Ratio (paclitaxel/compound)” value came out at 0.13.
Taken in the same sequence, the figures for `CC[C@H](C)Cn1c(-c2c(F)cc(F)cc2F)c(Cl)nc(-n2cccn2)c1=O` [Compound 155, 5-Chloro-1-[(2S)-2-methylbutyl)-3-(1H-pyrazol-1-yl)-6-(2,4,6-trifluorophenyl)-2(1H)-pyrazinone] were 112 to 113 °C, 20 nM, 0.85, 75 nM and 1.17.
Take `CCC(C)Cn1c(-c2ccc(F)cc2F)c(C)nc(C#N)c1=N` (centres unmarked) [Compound 471, 5-(2,4-Difluorophenyl)-3,4-dihydro-3-imino-6-methyl-4-(2-methylbutyl)pyrazinecarbonitrile]: the melting point fell in the range of 73 to 77 °C.
